Laboratory results taken from PMC7238120, “Strong and Selective Inhibitory Effects of the Biflavonoid Selamariscina A against CYP2C8 and CYP2C9 Enzyme Activities in Human Liver Microsomes” (Pharmaceutics, 2020).
Like-named read-outs stand apart in the source and are kept apart here.

What was measured:
UGT1A3 = target: T1, UGT1A3 (Homo sapiens, UniProt P35503); assay: Inhibition of UGT1A3 (chenodeoxycholic acid glucuronidation) in human liver microsomes; assay type: in vitro ADME; details: substrate chenodeoxycholic acid; HLMs
T1 construct: tissue XenoTech XTreme 200; host or cells: pooled human liver microsomes
T1 sequence (P35503 29-534): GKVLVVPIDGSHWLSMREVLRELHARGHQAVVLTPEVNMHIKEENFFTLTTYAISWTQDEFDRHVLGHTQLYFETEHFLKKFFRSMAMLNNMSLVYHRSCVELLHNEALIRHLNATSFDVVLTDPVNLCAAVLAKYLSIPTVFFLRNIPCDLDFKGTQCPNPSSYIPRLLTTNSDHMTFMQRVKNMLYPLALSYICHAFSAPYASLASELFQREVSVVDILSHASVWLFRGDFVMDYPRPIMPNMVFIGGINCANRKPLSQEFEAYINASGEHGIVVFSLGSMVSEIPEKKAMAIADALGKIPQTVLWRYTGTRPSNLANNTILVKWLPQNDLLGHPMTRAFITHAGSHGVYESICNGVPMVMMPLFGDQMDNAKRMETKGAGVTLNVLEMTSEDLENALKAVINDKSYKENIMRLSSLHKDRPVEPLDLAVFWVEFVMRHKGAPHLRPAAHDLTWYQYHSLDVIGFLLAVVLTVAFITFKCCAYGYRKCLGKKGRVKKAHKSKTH
Protocol: The ability of selamariscina A to inhibit the metabolism of six UGT enzyme probe substrates was evaluated using previously developed methods with minor modifications. The microsomal incubation was performed by dividing the non-interactive substrate cocktail sets (set A included SN-38 for UGT1A1, CDCA for UGT1A3 and TFP for UGT1A4 while set B included N-SER for UGT1A6, MPA for UGT1A9 and NX for UGT2B7) (Table 2). In brief, HLMs (0.25 mg/mL) were activated by incubation in the presence of alamethicin (25 µg/mL) for 15 min on ice. After the addition of UGT probe substrates and inhibitor (0, 0.5, 2, 5, 20 and 50 μM), the incubation mixtures were pre-incubated at 37 °C for 5 min. […] After centrifugation at 18,000 g (5 min, 4 °C), aliquots of supernatants were analyzed by LC–MS/MS. […]
All metabolites and the IS were separated on a Kinetex XB-C18 column (100 × 2.10 mm, 2.6 μm, 100 Å; Phenomenex, Torrance, CA, USA) and analyzed using a Shimadzu LCMS 8060 triple-quadrupole mass spectrometer coupled with a Nexera X2 ultra high-performance liquid chromatography system (Shimadzu, Kyoto, Japan) equipped with an electrospray ionization interface. […] Quantitation was conducted in selected reaction monitoring (SRM) modes with the precursor-to-product ion transition for each metabolite (Table 1 and Table 2).
We analyzed the data with Shimadzu LabSolution LC–MS software. […]

CYP2C8 = target: T2, CYP2C8 (Homo sapiens, UniProt P10632); assay: Time-dependent inhibition (IC50 shift) of CYP2C8, amodiaquine, human liver microsomes; assay type: in vitro ADME; design: incubation mixtures containing pooled human liver microsomes (HLMs, XTreme 200, XenoTech); tissue XenoTech XTreme 200; host or cells: pooled human liver microsomes
T2 sequence (P10632 1-490): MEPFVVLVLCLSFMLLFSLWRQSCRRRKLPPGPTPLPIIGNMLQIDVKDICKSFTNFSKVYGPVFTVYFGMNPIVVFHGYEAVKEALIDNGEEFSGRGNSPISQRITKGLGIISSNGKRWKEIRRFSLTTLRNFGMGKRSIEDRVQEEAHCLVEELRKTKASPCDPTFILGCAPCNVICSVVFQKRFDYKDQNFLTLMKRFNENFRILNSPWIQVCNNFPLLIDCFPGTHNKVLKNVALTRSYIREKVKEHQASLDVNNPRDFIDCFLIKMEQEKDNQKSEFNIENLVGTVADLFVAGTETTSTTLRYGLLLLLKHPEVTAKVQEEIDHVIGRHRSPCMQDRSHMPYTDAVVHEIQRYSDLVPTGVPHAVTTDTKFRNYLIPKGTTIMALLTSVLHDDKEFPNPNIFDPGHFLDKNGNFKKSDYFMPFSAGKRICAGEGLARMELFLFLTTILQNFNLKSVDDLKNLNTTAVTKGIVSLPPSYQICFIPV
Protocol: The time-dependent inhibition of selamariscina A against CYP2C8 and CYP2C9 enzymes was evaluated using an IC50 shift method. Selamariscina A was pre-incubated at six concentrations (0, 0.002, 0.005, 0.02, 0.05, and 0.2 μM) with HLMs in the presence of an NDAPH generation system for 30 min at 37 °C. The reaction was initiated by adding 1 μM amodiaquine or 10 μM diclofenac and further incubated for 10 min. Incubation was terminated by adding 50 μL of ice-cold acetonitrile containing 7 nM trimipramine. After centrifugation, aliquots of supernatants were analyzed by LC–MS/MS.
All metabolites and the IS were separated on a Kinetex XB-C18 column (100 × 2.10 mm, 2.6 μm, 100 Å; Phenomenex, Torrance, CA, USA) and analyzed using a Shimadzu LCMS 8060 triple-quadrupole mass spectrometer coupled with a Nexera X2 ultra high-performance liquid chromatography system (Shimadzu, Kyoto, Japan) equipped with an electrospray ionization interface. The mobile phase consisted of 0.1% formic acid in water (A) and 0.1% formic acid in acetonitrile (B). The elution condition was set as 8% B (0–0.5 min), 8%→60% B (0.5–5 min), 60% B (5–6 min), 60%→8% B (6–6.1 min) and 8% B (6.1–9 min) for the analysis of metabolites of P450 probe substrates and set as 0%→40% B (0–1 min), 40%→50% B (1–5 min), 50%→0% B (5–5.1 min), and 0% B (5.1–8 min) for the analysis of metabolites of UGT probe substrates. The flow rate was 0.2 mL/min. Electrospray ionization was performed in positive-ion mode at 4000 V or in negative-ion mode at −3500 V. The optimum operating conditions were determined as follows: vaporizer temperature, 300 °C; capillary temperature, 350 °C; collision gas (argon) pressure, 1.5 mTorr. Quantitation was conducted in selected reaction monitoring (SRM) modes with the precursor-to-product ion transition for each metabolite (Table 1 and Table 2).
We analyzed the data with Shimadzu LabSolution LC–MS software. The IC50 values were calculated by WinNonlin software (Pharsight, Mountain View, CA, USA). […]

O=C1CC(c2cc(-c3c(O)ccc4c(=O)cc(-c5ccc(O)cc5)oc34)c(O)cc2O)Oc2cc(O)cc(O)c21 (stereo not shown) [selamariscina A]
IC50 (UGT1A3): > 50000 nM
IC50 (CYP2C8; 30 min pre-incubation at 37 °C with NADPH generation system, read-out: IC50, CYP2C8 amodiaquine, HLMs pre-incubated with NADPH generation system): 31 nM
Time-dependent inhibition of CYP2C8 (CYP2C8; IC50 shift method): not a time-dependent inhibitor
IC50 (CYP2C8; no NADPH pre-incubation, read-out: IC50, CYP2C8 amodiaquine, untreated HLMs): 19 nM
